Test results as given in patent US20240123080A1, “CYTOTOXIC COMPOUNDS AND CONJUGATES THEREOF” (Seagen Inc., priority 2022, published 2024).
*1 amine or outer side, *2 acyl side, *3 side chain or, on linkers, in order; H or OH if unused. Where a SMILES comes first, the peptide text is derived from it. [ ]: non-standard residue; d: D form. The star is where a group is joined. Dolaproine = CO[C@@H]([C@@H]1CCCN1)[C@@H](C)C(=O)O; Dil = CC[C@H](C)[C@H](NC)[C@@H](CC(=O)O)OC; X11 = C[S+]([O-])NC[C@H](N[*:1])C(=O)[*:2]; Met(O2) = CS(=O)(=O)CC[C@H](N)C(=O)O; X9 = CCN([C@@H](CO)C(=O)[*:2])[*:1]; X1 = C[C@@H](N*)[C@@H](O)c1ccccc1; X10 = C[C@H]1OC(=O)N[C@@H]1C(=O)*; Hyp = O=C(O)[C@@H]1C[C@@H](O)CN1; Phe(ol) = N[C@H](CO)Cc1ccccc1; X4 = CN1C(=O)OC(C)(C)C1C(=O)*; X6 = CN(C)[C@@H](CCO)C(=O)*; X8 = CN1C(=O)OC[C@H]1C(=O)*; X5 = O=C1N[C@H](C(=O)*)CO1; NMeS = CN[C@@H](CO)C(=O)O; hSer = N[C@@H](CCO)C(=O)O; X7 = O=C1NC(C(=O)*)CCO1; Dap = NC[C@H](N)C(=O)O; Glycolyl = O=C(CO)*; Ms = CS(=O)(=O)*

Tests used:
Assay in all cases: In vitro cytotoxicity, cell proliferation assay (CellTiter-Glo, 96 h)
Format in all cases: cell-based
DEL ALCL = details: auristatin free drug
Procedure: (§1) The cytotoxicity of free drugs and drug conjugates were measured by a cell proliferation assay employing the protocol described in Promega Corp. Technical Bulletin TB288; and Mendoza et al., 2002, Cancer Res. 62:5485-5488), the methods of which are specifically incorporated by reference herein. Briefly, an aliquot of 40 μl of cell culture containing about 400 cells in medium is deposited in each well of a 384-well, opaque-walled plate. A 10 μL aliquot of free drug or drug conjugate is added to the experimental wells and incubated for 96 h and are then equilibrated to room temperature for approximately 30 minutes whereupon a volume of CellTiter-Glo™ reagent equal to the volume of cell culture medium present in each well is added. The contents are mixed for 2 minutes on an orbital shaker to induce cell lysis and the plate is incubated at room temperature for 10 minutes to stabilize the luminescence signal for recordation.

Karpas299 NHL = details: Homo sapiens, KARPAS-299, auristatin free drug
Procedure: as §1

L540cy HL = details: auristatin free drug
Procedure: as §1

Row | Compound | IC50 (DEL ALCL) | IC50 (Karpas299 NHL) | IC50 (L540cy HL)
1 | CC[C@H](C)[C@@H]([C@@H](CC(=O)N1CCC[C@H]1[C@H](OC)[C@@H](C)C(=O)N[C@@H](Cc1ccccc1)C(=O)O)OC)N(C)C(=O)[C@@H](NC(=O)[C@H](CO)NC)C(C)C [Comparative Example A, reference compound] (H-[NMeS]V[Dil][Dolaproine]F-OH) | 209 nM | 253 nM | > 1000 nM
2 | CC[C@H](C)[C@@H]([C@@H](CC(=O)N1CCC[C@H]1[C@H](OC)[C@@H](C)C(=O)N[C@@H](Cc1ccccc1)C(=O)O)OC)N(C)C(=O)[C@@H](NC(=O)[C@@H]1COC(=O)N1C)C(C)C [Comparative Example C, reference compound] (X8-V[Dil][Dolaproine]F-OH) | 342 nM | 218 nM | 284 nM
3 | CC[C@H](C)[C@@H]([C@@H](CC(=O)N1CCC[C@H]1[C@H](OC)[C@@H](C)C(=O)N[C@H](CO)Cc1ccccc1)OC)N(C)C(=O)[C@@H](NC(=O)[C@H](CCO)N(C)C)C(C)C [Example 9] (X6-V[Dil][Dolaproine][Phe(ol)]) | 0.8 nM | 0.9 nM | 4 nM
4 | CC[C@H](C)[C@@H]([C@@H](CC(=O)N1CCC[C@H]1[C@H](OC)[C@@H](C)C(=O)N[C@H](C)[C@@H](O)c1ccccc1)OC)N(C)C(=O)[C@@H](NC(=O)[C@H]([C@@H](C)O)N(C)C)C(C)C [Example 10] | 0.4 nM | 0.5 nM | 3 nM
5 | CC[C@H](C)[C@@H]([C@@H](CC(=O)N1CCC[C@H]1[C@H](OC)[C@@H](C)C(=O)N[C@H](C)[C@@H](O)c1ccccc1)OC)N(C)C(=O)[C@@H](NC(=O)[C@@H](CO)N(C)C)C(C)C [Example 11] | 1 nM | 1 nM | 6 nM
6 | CCN[C@@H](CO)C(=O)N[C@H](C(=O)N(C)[C@@H]([C@@H](C)CC)[C@@H](CC(=O)N1CCC[C@H]1[C@H](OC)[C@@H](C)C(=O)N[C@H](CO)Cc1ccccc1)OC)C(C)C [Example 15] (H-[X9]V[Dil][Dolaproine][Phe(ol)]) | 0.7 nM | 2.3 nM | 3.9 nM
7 | CC[C@H](C)[C@@H]([C@@H](CC(=O)N1CCC[C@H]1[C@H](OC)[C@@H](C)C(=O)N[C@H](CO)Cc1ccccc1)OC)N(C)C(=O)[C@@H](NC(=O)C[C@@H](NC)[C@@H](C)O)C(C)C [Example 22] | 5.8 nM | 13 nM | 16 nM
8 | CC[C@H](C)[C@@H]([C@@H](CC(=O)N1CCC[C@H]1[C@H](OC)[C@@H](C)C(=O)N[C@H](CO)Cc1ccccc1)OC)N(C)C(=O)[C@@H](NC(=O)[C@@H](N)CO)C(C)C [Example 23] (H-SV[Dil][Dolaproine][Phe(ol)]) | 17 nM | 66 nM | 662 nM
9 | CC[C@H](C)[C@@H]([C@@H](CC(=O)N1CCC[C@H]1[C@H](OC)[C@@H](C)C(=O)N[C@H](CO)Cc1ccccc1)OC)N(C)C(=O)[C@@H](NC(=O)[C@@H](N)CCO)C(C)C [Example 24] (H-[hSer]V[Dil][Dolaproine][Phe(ol)]) | 13 nM | 43 nM | 621 nM
10 | CC[C@H](C)[C@@H]([C@@H](CC(=O)N1CCC[C@H]1[C@H](OC)[C@@H](C)C(=O)N[C@H](CO)Cc1ccccc1)OC)N(C)C(=O)[C@@H](NC(=O)[C@@H](N)[C@@H](C)O)C(C)C [Example 25] (H-TV[Dil][Dolaproine][Phe(ol)]) | 18.9 nM | 62 nM | 457 nM
11 | CC[C@H](C)[C@@H]([C@@H](CC(=O)N1CCC[C@H]1[C@H](OC)[C@@H](C)C(=O)N[C@H](C)[C@@H](O)c1ccccc1)OC)N(C)C(=O)[C@@H](NC(=O)[C@H](N)CO)C(C)C [Example 26] (H-[dS]V[Dil][Dolaproine]-X1) | 4.2 nM | 5 nM | 20 nM
12 | CC[C@H](C)[C@@H]([C@@H](CC(=O)N1CCC[C@H]1[C@H](OC)[C@@H](C)C(=O)N[C@H](C)[C@@H](O)c1ccccc1)OC)N(C)C(=O)[C@@H](NC(=O)[C@H](N)[C@H](C)O)C(C)C [Example 27] (H-[dT]V[Dil][Dolaproine]-X1) | 1.9 nM | 2.3 nM | 13 nM
13 | CC[C@H](C)[C@@H]([C@@H](CC(=O)N1CCC[C@H]1[C@H](OC)[C@@H](C)C(=O)N[C@H](CO)Cc1ccccc1)OC)N(C)C(=O)[C@@H](NC(=O)[C@@H]1COC(=O)N1C)C(C)C [Example 36] (X8-V[Dil][Dolaproine][Phe(ol)]) | 6.7 nM | 27 nM | 197 nM
14 | CC[C@H](C)[C@@H]([C@@H](CC(=O)N1CCC[C@H]1[C@H](OC)[C@@H](C)C(=O)N[C@H](C)[C@@H](O)c1ccccc1)OC)N(C)C(=O)[C@@H](NC(=O)[C@@H]1COC(=O)N1C)C(C)C [Example 37] | > 1000 nM | > 1000 nM | > 1000 nM
15 | CC[C@H](C)[C@@H]([C@@H](CC(=O)N1CCC[C@H]1[C@H](OC)[C@@H](C)C(=O)NCCc1ccccc1)OC)N(C)C(=O)[C@@H](NC(=O)[C@@H]1COC(=O)N1C)C(C)C [Example 38] | 148 nM | > 1000 nM | 512 nM
16 | CC[C@H](C)[C@@H]([C@@H](CC(=O)N1CCC[C@H]1[C@H](OC)[C@@H](C)C(=O)N[C@@H](Cc1ccccc1)c1nccs1)OC)N(C)C(=O)[C@@H](NC(=O)[C@@H]1COC(=O)N1C)C(C)C [Example 39] | 512 nM | > 1000 nM | > 1000 nM
17 | CC[C@H](C)[C@@H]([C@@H](CC(=O)N1CCC[C@H]1[C@H](OC)[C@@H](C)C(=O)N[C@H](CO)Cc1ccccc1)OC)N(C)C(=O)[C@@H](NC(=O)[C@@H]1COC(=O)N1)C(C)C [Example 40] (X5-V[Dil][Dolaproine][Phe(ol)]) | 12.3 nM | 60 nM | 442 nM
18 | CC[C@H](C)[C@@H]([C@@H](CC(=O)N1CCC[C@H]1[C@H](OC)[C@@H](C)C(=O)N[C@H](CO)Cc1ccccc1)OC)N(C)C(=O)[C@@H](NC(=O)C1CCOC(=O)N1)C(C)C (stereo partly drawn) [Example 41] (X7-V[Dil][Dolaproine][Phe(ol)]) | 15 nM | 62 nM | 457 nM
19 | CC[C@H](C)[C@@H]([C@@H](CC(=O)N1CCC[C@H]1[C@H](OC)[C@@H](C)C(=O)N[C@H](CO)Cc1ccccc1)OC)N(C)C(=O)[C@@H](NC(=O)[C@H]1NC(=O)O[C@@H]1C)C(C)C [Example 42] (X10-V[Dil][Dolaproine][Phe(ol)]) | 16 nM | 64 nM | 481 nM
20 | CC[C@H](C)[C@@H]([C@@H](CC(=O)N1CCC[C@H]1[C@H](OC)[C@@H](C)C(=O)N[C@H](CO)Cc1ccccc1)OC)N(C)C(=O)[C@@H](NC(=O)C1N(C)C(=O)OC1(C)C)C(C)C (stereo partly drawn) [Example 43] (X4-V[Dil][Dolaproine][Phe(ol)]) | 3.2 nM | 5.9 nM | 19 nM
21 | CC[C@H](C)[C@@H]([C@@H](CC(=O)N1CCC[C@H]1[C@H](OC)[C@@H](C)C(=O)N[C@H](CO)Cc1ccccc1)OC)N(C)C(=O)[C@@H](NC(=O)[C@@H](N)CNC(C)=O)C(C)C [Example 46] (H-[Dap](Ac)V[Dil][Dolaproine][Phe(ol)]) | 141 nM | 264 nM | > 1000 nM
22 | CC[C@H](C)[C@@H]([C@@H](CC(=O)N1CCC[C@H]1[C@H](OC)[C@@H](C)C(=O)N[C@H](CO)Cc1ccccc1)OC)N(C)C(=O)[C@@H](NC(=O)[C@@H](N)CCS(C)(=O)=O)C(C)C [Example 47] (H-[Met(O2)]V[Dil][Dolaproine][Phe(ol)]) | > 1000 nM | > 1000 nM | > 1000 nM
23 | CC[C@H](C)[C@@H]([C@@H](CC(=O)N1CCC[C@H]1[C@H](OC)[C@@H](C)C(=O)N[C@H](CO)Cc1ccccc1)OC)N(C)C(=O)[C@@H](NC(=O)[C@@H](N)CN[S+](C)[O-])C(C)C (stereo partly drawn) [Example 48] (H-[X11]V[Dil][Dolaproine][Phe(ol)]) | 41 nM | 110 nM | > 1000 nM
24 | CC[C@H](C)[C@@H]([C@@H](CC(=O)N1CCC[C@H]1[C@H](OC)[C@@H](C)C(=O)N[C@H](CO)Cc1ccccc1)OC)N(C)C(=O)[C@@H](NC(=O)[C@@H]1C[C@@H](O)CN1)C(C)C [Example 49] (H-[Hyp]V[Dil][Dolaproine][Phe(ol)]) | 32 nM | 35 nM | 76 nM
25 | CC[C@H](C)[C@@H]([C@@H](CC(=O)N1CCC[C@H]1[C@H](OC)[C@@H](C)C(=O)N[C@H](CO)Cc1ccccc1)OC)N(C)C(=O)[C@@H](NC(=O)[C@@H](N)CNS(C)(=O)=O)C(C)C [Example 50] (H-[Dap](Ms)V[Dil][Dolaproine][Phe(ol)]) | > 1000 nM | > 1000 nM | > 1000 nM
26 | CC[C@H](C)[C@@H]([C@@H](CC(=O)N1CCC[C@H]1[C@H](OC)[C@@H](C)C(=O)N[C@H](CO)Cc1ccccc1)OC)N(C)C(=O)[C@@H](NC(=O)[C@@H](N)CNC(=O)CO)C(C)C [Example 51] (H-[Dap](Glycolyl)V[Dil][Dolaproine][Phe(ol)]) | 93 nM | 224 nM | > 1000 nM
27 | CC[C@H](C)[C@@H]([C@@H](CC(=O)N1CCC[C@H]1[C@H](OC)[C@@H](C)C(=O)NC(CO)Cc1nccs1)OC)N(C)C(=O)[C@@H](NC(=O)[C@H](CO)N(C)C)C(C)C (stereo partly drawn) [Example 52] | 43 nM | 58 nM | 438 nM
28 | CC[C@H](C)[C@@H]([C@@H](CC(=O)N1CCC[C@H]1[C@H](OC)[C@@H](C)C(=O)NC(CO)Cn1ccnn1)OC)N(C)C(=O)[C@@H](NC(=O)[C@H](CO)N(C)C)C(C)C (stereo partly drawn) [Example 53] | > 1000 nM | > 1000 nM | > 1000 nM
